From article PMC5218480 (PLoS ONE, 2017)

Test system: MV-4-11 cells
Assay: Gene expression microarray analysis (Affymetrix PrimeView) and GSEA
Assay type: cell-based, human
Set-up: RFU PODN (11730768_x_at) / Fold change /veh PODN (11730768_x_at) / RFU LINC00158 (11744669_a_at) / Fold change /veh LINC00158 (11744669_a_at) / RFU DUSP10 (11751237_a_at) / Fold change /veh DUSP10 (11751237_a_at) / RFU ID3 (11757404_x_at) / Fold change /veh ID3 (11757404_x_at) / RFU PLEKHG5 (11737974_s_at) / Fold change /veh PLEKHG5 (11737974_s_at) / RFU LRRC4B (11730491_at) / Fold change /veh LRRC4B (11730491_at) / RFU GIMAP4 (11747438_a_at) / Fold change /veh GIMAP4 (11747438_a_at) / RFU KRT8 (11758183_x_at) / Fold change /veh KRT8 (11758183_x_at) / RFU CNN1 (11734310_a_at) / Fold change /veh CNN1 (11734310_a_at) / RFU VPS37D (11726825_at) / Fold change /veh VPS37D (11726825_at) / RFU C10orf10 (11716522_x_at) / Fold change /veh C10orf10 (11716522_x_at) / RFU KIR2DL2 /// KIR2DL4 /// KIR2DL5A /// KIR2DL5B /// KIR2DS1 /// KIR2DS2 /// KIR2DS3 /// KIR2DS4 /// KIR3DL3 /// KIR3DL3 /// KIR3DS1 (11738374_at) / Fold change /veh KIR2DL2 /// KIR2DL4 /// KIR2DL5A /// KIR2DL5B /// KIR2DS1 /// KIR2DS2 /// KIR2DS3 /// KIR2DS4 /// KIR3DL3 /// KIR3DL3 /// KIR3DS1 (11738374_at) / RFU C1QL1 (11718748_at) / Fold change /veh C1QL1 (11718748_at) / RFU TMPRSS4 (11747572_a_at) / Fold change /veh TMPRSS4 (11747572_a_at) / RFU HAMP (11756126_x_at) / Fold change /veh HAMP (11756126_x_at) / RFU RNFT2 (11725882_a_at) / Fold change /veh RNFT2 (11725882_a_at) / RFU NR4A2 (11747474_a_at) / Fold change /veh NR4A2 (11747474_a_at) / RFU ABCC12 (11746883_a_at) / Fold change /veh ABCC12 (11746883_a_at) / RFU TMEM136 (11760407_x_at) / Fold change /veh TMEM136 (11760407_x_at) / RFU CLDN22 /// WWC2 (11732394_at) / Fold change /veh CLDN22 /// WWC2 (11732394_at) / RFU HLA-DPB1 (11760878_x_at) / Fold change /veh HLA-DPB1 (11760878_x_at) / RFU SPINT1 (11716480_a_at) / Fold change /veh SPINT1 (11716480_a_at) / RFU GAP43 (11754022_s_at) / Fold change /veh GAP43 (11754022_s_at) / RFU A4GNT (11735810_at) / Fold change /veh A4GNT (11735810_at) / RFU PRB3 (11715151_x_at) / Fold change /veh PRB3 (11715151_x_at) / RFU TUBB4B (11761932_at) / Fold change /veh TUBB4B (11761932_at) / RFU CAPN14 (11732068_a_at) / Fold change /veh CAPN14 (11732068_a_at) / RFU TMCC2 (11721928_a_at) / Fold change /veh TMCC2 (11721928_a_at) / RFU IRGQ (11745062_a_at) / Fold change /veh IRGQ (11745062_a_at) / RFU FAM174B (11720279_a_at) / Fold change /veh FAM174B (11720279_a_at) / RFU TMPRSS4 (11748680_a_at) / Fold change /veh TMPRSS4 (11748680_a_at) / RFU FAM212B (11763350_a_at) / Fold change /veh FAM212B (11763350_a_at) / RFU PLEKHG5 (11743358_a_at) / Fold change /veh PLEKHG5 (11743358_a_at) / RFU ZSCAN30 (11745921_a_at) / Fold change /veh ZSCAN30 (11745921_a_at) / RFU CMKLR1 (11741424_a_at) / Fold change /veh CMKLR1 (11741424_a_at) / RFU LOC101060620 /// MAPK8IP1 (11723275_at) / Fold change /veh LOC101060620 /// MAPK8IP1 (11723275_at) / RFU SPTSSB (11747773_x_at) / Fold change /veh SPTSSB (11747773_x_at) / RFU PRSS12 (11739890_at) / Fold change /veh PRSS12 (11739890_at) / RFU BIN1 (11741810_x_at) / Fold change /veh BIN1 (11741810_x_at) / RFU WNT11 (11732464_a_at) / Fold change /veh WNT11 (11732464_a_at) / RFU C10orf10 (11716521_a_at) / Fold change /veh C10orf10 (11716521_a_at) / RFU C5orf56 (11738089_at) / Fold change /veh C5orf56 (11738089_at) / RFU CYB561 (11721691_x_at) / Fold change /veh CYB561 (11721691_x_at) / RFU ANKRD19P (11752326_a_at) / Fold change /veh ANKRD19P (11752326_a_at) / RFU OR2T12 /// OR2T33 /// OR2T8 (11738714_s_at) / Fold change /veh OR2T12 /// OR2T33 /// OR2T8 (11738714_s_at) / RFU VCAN (11748164_a_at) / Fold change /veh VCAN (11748164_a_at) / RFU JSRP1 (11732532_at) / Fold change /veh JSRP1 (11732532_at) / RFU KRTAP10-11 (11738290_x_at) / Fold change /veh KRTAP10-11 (11738290_x_at) / RFU MYO3A (11730013_a_at) / Fold change /veh MYO3A (11730013_a_at) / RFU EBF3 (11725865_a_at) / Fold change /veh EBF3 (11725865_a_at) / RFU CAMK2N1 (11719241_x_at) / Fold change /veh CAMK2N1 (11719241_x_at) / RFU C5orf56 (11738088_a_at) / Fold change /veh C5orf56 (11738088_a_at) / RFU OLFML3 (11715873_a_at) / Fold change /veh OLFML3 (11715873_a_at) / RFU LOC100653217 /// NTM (11731650_a_at) / Fold change /veh LOC100653217 /// NTM (11731650_a_at) / RFU MAPK11 (11762145_a_at) / Fold change /veh MAPK11 (11762145_a_at) / RFU FIZ1 (11724087_x_at) / Fold change /veh FIZ1 (11724087_x_at) / RFU OASL (11726364_x_at) / Fold change /veh OASL (11726364_x_at) / RFU SOX15 (11748057_x_at) / Fold change /veh SOX15 (11748057_x_at) / RFU CD79A (11719716_a_at) / Fold change /veh CD79A (11719716_a_at) / RFU HIST1H1D (11736915_at) / Fold change /veh HIST1H1D (11736915_at) / RFU CASKIN2 (11723855_a_at) / Fold change /veh CASKIN2 (11723855_a_at) / RFU LOC730098 (11760151_x_at) / Fold change /veh LOC730098 (11760151_x_at) / RFU OR4N2 (11742367_at) / Fold change /veh OR4N2 (11742367_at) / RFU PRRT2 (11749266_a_at) / Fold change /veh PRRT2 (11749266_a_at) / RFU SNX32 (11753110_a_at) / Fold change /veh SNX32 (11753110_a_at) / RFU CDHR5 (11726645_a_at) / Fold change /veh CDHR5 (11726645_a_at) / RFU RCAN1 (11760418_a_at) / Fold change /veh RCAN1 (11760418_a_at) / RFU FAM167A (11723789_a_at) / Fold change /veh FAM167A (11723789_a_at) / RFU FAM26E (11764081_at) / Fold change /veh FAM26E (11764081_at) / RFU ISYNA1 (11749810_s_at) / Fold change /veh ISYNA1 (11749810_s_at) / RFU ACY1 (11761880_at) / Fold change /veh ACY1 (11761880_at) / RFU 11764098_at / Fold change /veh 11764098_at / RFU SAMD14 (11745864_x_at) / Fold change /veh SAMD14 (11745864_x_at) / RFU NPB (11741838_a_at) / Fold change /veh NPB (11741838_a_at) / RFU TMPRSS6 (11731388_a_at) / Fold change /veh TMPRSS6 (11731388_a_at) / RFU KRTAP10-2 (11738614_at) / Fold change /veh KRTAP10-2 (11738614_at) / RFU ARHGAP8 /// PRR5-ARHGAP8 (11727945_x_at) / Fold change /veh ARHGAP8 /// PRR5-ARHGAP8 (11727945_x_at) / RFU KRTAP5-7 /// NADSYN1 (11734609_at) / Fold change /veh KRTAP5-7 /// NADSYN1 (11734609_at) / RFU RASL12 (11751679_a_at) / Fold change /veh RASL12 (11751679_a_at) / RFU CDKN2B (11736163_a_at) / Fold change /veh CDKN2B (11736163_a_at) / RFU PRF1 (11729649_at) / Fold change /veh PRF1 (11729649_at) / RFU, ZNF638 /// ZNF638-IT1 / Fold change vs veh, ZNF638 /// ZNF638-IT1 / RFU, PANK3 / Fold change vs veh, PANK3 / RFU, SH3YL1 / Fold change vs veh, SH3YL1 / RFU, ZEB2 / Fold change vs veh, ZEB2 / RFU, NRIP1 / Fold change vs veh, NRIP1 / RFU, PTTG1IP / Fold change vs veh, PTTG1IP / RFU, CAPN2 / Fold change vs veh, CAPN2 / RFU, MED14 / Fold change vs veh, MED14 / RFU, SNORA58 / Fold change vs veh, SNORA58 / RFU, C1orf63 / Fold change vs veh, C1orf63 / RFU, LRRFIP1 / Fold change vs veh, LRRFIP1 / RFU, NDUFAF7 / Fold change vs veh, NDUFAF7 / RFU, SLC12A2 / Fold change vs veh, SLC12A2 / RFU, IBTK / Fold change vs veh, IBTK / RFU, ESF1 / Fold change vs veh, ESF1 / Fold change vs veh, TMEM50B / RFU, TAOK1 / Fold change vs veh, TAOK1 / RFU, ACBD3 / Fold change vs veh, ACBD3 / RFU, TMA16 / Fold change vs veh, TMA16 / RFU, RWDD3 / Fold change vs veh, RWDD3 / RFU, BCAT1 / Fold change vs veh, BCAT1 / RFU, EDEM3 / Fold change vs veh, EDEM3 / RFU, TMEM33 / Fold change vs veh, TMEM33 / RFU, WDR75 / Fold change vs veh, WDR75 / RFU, AHCTF1 / Fold change vs veh, AHCTF1 / RFU, TFRC / Fold change vs veh, TFRC / RFU, ZDHHC17 / Fold change vs veh, ZDHHC17 / RFU, NOM1 / Fold change vs veh, NOM1 / RFU, ARL8B / Fold change vs veh, ARL8B / RFU, ZBTB11 / Fold change vs veh, ZBTB11 / RFU, TAMM41 / Fold change vs veh, TAMM41 / RFU, KIAA1704 /// LOC100996395 / Fold change vs veh, KIAA1704 /// LOC100996395 / RFU, ING1 / Fold change vs veh, ING1 / RFU, TRMT61B / Fold change vs veh, TRMT61B / RFU, FUBP3 / Fold change vs veh, FUBP3 / RFU, TP53 / Fold change vs veh, TP53 / RFU, TNKS2 / Fold change vs veh, TNKS2 / RFU, ZFP14 / Fold change vs veh, ZFP14 / RFU, ACTR2 / Fold change vs veh, ACTR2 / RFU, PPP3R1 / Fold change vs veh, PPP3R1 / RFU, PIK3R1 / Fold change vs veh, PIK3R1 / RFU, HNRNPA1 / Fold change vs veh, HNRNPA1 / RFU, RNF170 / Fold change vs veh, RNF170 / RFU, ZNF28 / Fold change vs veh, ZNF28 / RFU, RNGTT / Fold change vs veh, RNGTT / RFU, OGT / Fold change vs veh, OGT / RFU, BRD1 / Fold change vs veh, BRD1 / RFU, MARS / Fold change vs veh, MARS / RFU, ZNF655 / Fold change vs veh, ZNF655 / RFU, FAHD1 / Fold change vs veh, FAHD1 / RFU, BDP1 / Fold change vs veh, BDP1 / RFU, LRRCC1 / Fold change vs veh, LRRCC1 / RFU, ARID1A / Fold change vs veh, ARID1A / RFU, ZNF146 / Fold change vs veh, ZNF146 / RFU, ZNF330 / Fold change vs veh, ZNF330 / RFU, GPN3 / Fold change vs veh, GPN3 / RFU, C9orf123 / Fold change vs veh, C9orf123 / RFU, N4BP2L2 / Fold change vs veh, N4BP2L2 / RFU, ARFIP1 / Fold change vs veh, ARFIP1 / RFU, FAM179B / Fold change vs veh, FAM179B / RFU, BCL10 / Fold change vs veh, BCL10 / RFU, UHRF1BP1L / Fold change vs veh, UHRF1BP1L / RFU, BET1 / Fold change vs veh, BET1 / RFU, CNOT2 / Fold change vs veh, CNOT2 / RFU, ZNF268 / Fold change vs veh, ZNF268 / Fold change vs veh, ZNF507 / RFU, DGCR2 / Fold change vs veh, DGCR2 / RFU, WDSUB1 / Fold change vs veh, WDSUB1 / Fold change vs veh, HSP90B1 /// MIR3652 / RFU, ADSS / Fold change vs veh, ADSS / RFU, GK / Fold change vs veh, GK / RFU, ZNF148 / Fold change vs veh, ZNF148 / RFU, TAF9 / Fold change vs veh, TAF9 / RFU, SLC1A5 / Fold change vs veh, SLC1A5 / RFU, SLMO2 / Fold change vs veh, SLMO2 / RFU, ABCC4 / Fold change vs veh, ABCC4 / RFU, LOC101060439 /// RAP1B / Fold change vs veh, LOC101060439 /// RAP1B / RFU, RFX7 / Fold change vs veh, RFX7 / RFU, GTPBP10 / Fold change vs veh, GTPBP10 / RFU, CNEP1R1 / Fold change vs veh, CNEP1R1 / RFU, BIVM-ERCC5 /// ERCC5 / Fold change vs veh, BIVM-ERCC5 /// ERCC5 / RFU, ILF3 / Fold change vs veh, ILF3 / RFU 11762660_at / Fold change /veh 11762660_at / RFU VCAN (11757783_s_at) / Fold change /veh VCAN (11757783_s_at) / RFU DDX43 (11728927_at) / Fold change /veh DDX43 (11728927_at) / RFU KRT8 (11758188_x_at) / Fold change /veh KRT8 (11758188_x_at) / RFU NKD1 (11759106_at) / Fold change /veh NKD1 (11759106_at) / RFU SRD5A1 (11742802_a_at) / Fold change /veh SRD5A1 (11742802_a_at) / RFU TPSAB1 /// TPSB2 (11721975_s_at) / Fold change /veh TPSAB1 /// TPSB2 (11721975_s_at) / RFU GSTM3 (11746129_a_at) / Fold change /veh GSTM3 (11746129_a_at) / RFU IL23R (11737362_x_at) / Fold change /veh IL23R (11737362_x_at) / RFU TMEM51 (11727254_a_at) / Fold change /veh TMEM51 (11727254_a_at) / RFU PIWIL2 (11732686_x_at) / Fold change /veh PIWIL2 (11732686_x_at) / RFU ORM1 (11744905_x_at) / Fold change /veh ORM1 (11744905_x_at) / RFU CCDC152 (11743942_at) / Fold change /veh CCDC152 (11743942_at) / RFU ECM1 (11717891_a_at) / Fold change /veh ECM1 (11717891_a_at) / RFU IL23R (11748794_a_at) / Fold change /veh IL23R (11748794_a_at) / RFU TNFAIP8L3 (11732012_x_at) / Fold change /veh TNFAIP8L3 (11732012_x_at) / RFU MBOAT4 (11741988_at) / Fold change /veh MBOAT4 (11741988_at) / RFU 11764193_at / Fold change /veh 11764193_at / RFU TMEM53 (11763286_at) / Fold change /veh TMEM53 (11763286_at) / RFU MAGEB2 (11727129_at) / Fold change /veh MAGEB2 (11727129_at) / RFU TMEM200A (11744735_a_at) / Fold change /veh TMEM200A (11744735_a_at) / RFU CCDC152 (11751479_a_at) / Fold change /veh CCDC152 (11751479_a_at) / RFU FAM211A (11726209_a_at) / Fold change /veh FAM211A (11726209_a_at) / RFU RGS16 (11746705_a_at) / Fold change /veh RGS16 (11746705_a_at) / RFU VCAN (11755009_s_at) / Fold change /veh VCAN (11755009_s_at) / RFU RHOB (11743442_s_at) / Fold change /veh RHOB (11743442_s_at) / RFU RGS16 (11720943_a_at) / Fold change /veh RGS16 (11720943_a_at) / RFU RGS16 (11720944_at) / Fold change /veh RGS16 (11720944_at) / RFU, VPS4B / Fold change vs veh, VPS4B / RFU, CREB1 / Fold change vs veh, CREB1 / RFU, DNAJC13 / Fold change vs veh, DNAJC13 / RFU, GNAQ / Fold change vs veh, GNAQ / RFU, CDK5R1 / Fold change vs veh, CDK5R1 / RFU, ZRANB3 / Fold change vs veh, ZRANB3 / RFU, CUL4A / Fold change vs veh, CUL4A / RFU, CCNY / Fold change vs veh, CCNY / RFU, UFL1 / Fold change vs veh, UFL1 / RFU, COG3 / Fold change vs veh, COG3 / RFU, DIAPH2 / Fold change vs veh, DIAPH2 / RFU, SKA2 / Fold change vs veh, SKA2 / RFU, AFF3 / Fold change vs veh, AFF3 / RFU, LMF1 / Fold change vs veh, LMF1 / RFU, IPO11 / Fold change vs veh, IPO11 / RFU, DFFB / Fold change vs veh, DFFB / RFU, FOXP1 / Fold change vs veh, FOXP1 / RFU, CARD8 / Fold change vs veh, CARD8 / RFU, STRN3 / Fold change vs veh, STRN3 / RFU, ADK / Fold change vs veh, ADK / RFU, RASSF2 / Fold change vs veh, RASSF2 / RFU, WIPF1 / Fold change vs veh, WIPF1 / RFU, LARP1B / Fold change vs veh, LARP1B / RFU, RASA1 / Fold change vs veh, RASA1 / RFU, RB1 / Fold change vs veh, RB1 / RFU, PPFIA1 / Fold change vs veh, PPFIA1 / RFU, MAT2A / Fold change vs veh, MAT2A / RFU, CCT5 / Fold change vs veh, CCT5 / RFU, WDR92 / Fold change vs veh, WDR92 / RFU, CUX1 / Fold change vs veh, CUX1 / RFU, TTC7A / Fold change vs veh, TTC7A / RFU, TMEM135 / Fold change vs veh, TMEM135 / RFU, DEPTOR / Fold change vs veh, DEPTOR / RFU, CPM / Fold change vs veh, CPM / RFU, DNAJB6 / Fold change vs veh, DNAJB6 / RFU, CACNA2D3 / Fold change vs veh, CACNA2D3 / RFU, DTX4 / Fold change vs veh, DTX4 / RFU, TFCP2 / Fold change vs veh, TFCP2 / RFU, GMCL1 /// GMCL1P1 / Fold change vs veh, GMCL1 /// GMCL1P1 / RFU, AEBP2 / Fold change vs veh, AEBP2 / RFU, SNHG1 /// SNORD22 /// SNORD25 /// SNORD26 /// SNORD27 /// SNORD28 /// SNORD29 /// SNORD31 / Fold change vs veh, SNHG1 /// SNORD22 /// SNORD25 /// SNORD26 /// SNORD27 /// SNORD28 /// SNORD29 /// SNORD31 / Fold change (Aza/veh), C12orf56 (ProbeSet 11735607_a_at) / Fold change (ACY-1035/veh), C12orf56 (ProbeSet 11735607_a_at) / Fold change (Aza/veh), FGFR1OP (ProbeSet 11751329_s_at) / Fold change (ACY-1035/veh), FGFR1OP (ProbeSet 11751329_s_at) / Fold change (Aza/veh), VPS36 (ProbeSet 11739960_a_at) / Fold change (ACY-1035/veh), VPS36 (ProbeSet 11739960_a_at) / RFU SYPL1 (11715823_x_at) / Fold change /veh SYPL1 (11715823_x_at) / RFU IGFBP7 (11715501_s_at) / Fold change /veh IGFBP7 (11715501_s_at) / RFU REEP3 (11722064_at) / Fold change /veh REEP3 (11722064_at) / RFU IGLL1 (11728026_x_at) / Fold change /veh IGLL1 (11728026_x_at): dose or concentration left out as unconfirmed
Conditions: ProbeSet 11763166_a_at; LIST B

## Nc1ccc(-c2cccs2)cc1NC(=O)c1ccc2c(c1)cc(C1CC1)n2CCN1CCOCC1 [ACY-1035]
  RFU, MARS: 48.43 RFU
